Assay results: US20220226265A1, “METHODS OF CONTROLLING MYOCARDIAL BLOOD FLOW” (UNIVERSITY OF LOUISVILLE RESEARCH FOUNDATION, INC., priority 2021, published 2022)

Test system: wild type and Kvβ-null mice
Test: Echocardiographic cardiac function during intravenous norepinephrine infusion
Type: in vivo, mouse
Conditions: for ejection fraction: after 1 min of 5 μg/kg·min−1 norepinephrine infusion
Description: In vivo measurements of cardiac function and myocardial blood flow: Mice were anesthetized with 3% isoflurane and supplemental O2, administered (1 L·min^−1) in a small induction chamber. After induction, the mice were placed on a controlled heating table in a supine position. Anesthesia was maintained throughout the procedure by delivery of 1-2% isoflurane and supplemental O2 (0.5 L·min^−1). The extremities were secured to the surgical table by tape and a lubricated probe was inserted rectally to monitor body temperature. The chest, neck, and hind limb hair were then removed using a depilatory agent, the skin was rinsed with warm water, and the neck area was disinfected with 70% ethanol/betadine and an incision (10-15 mm) was made at the right side of the neck. For infusion of contrast agent and drugs, the jugular vein was isolated using blunt forceps and catheterized with sterilized PE-50 polyethylene tubing (pre-filled with heparinized saline; 50 U·ml^−1). The jugular vein catheter was then secured in place with two sutures. For continuous measurement of arterial blood pressure, a small incision was made on the hind limb and the femoral artery was isolated and cannulated with a 1.2 F pressure catheter (SciSense, Transonic Systems, Inc., Ithaca, N.Y., USA) connected to a PowerLab data acquisition system (ADInstruments, Colorado Springs, Colo., USA) through a SP200 pressure interface unit designed to measure arterial blood pressure and heart rate. After cannulation, the pressure catheter was advanced 10 mm into the abdominal aorta.
Ultrasound gel was centrifuged in a 60 mL syringe (1500×g, 10 min) to remove air bubbles, warmed to 37° C., and applied to the chest. Cardiac function was measured by M-mode transthoracic echocardiographic imaging of the parasternal short axis view, mid-papillary level using a Vevo 2100 high resolution echocardiography imaging system (FujiFilm VisualSonics, Toronto, ON, Canada). Contrast echocardiography was performed by using Siemens ultrasound imaging system (Sequoia Acuson C512; Siemens Medical Systems USA Inc., Mountain View, Calif.) with a high-frequency linear-array probe (15L8) held in place by a 3D railing system. For myocardial contrast echocardiography (MCE), we administered lipid-shelled microbubbles, which were freshly prepared by sonication of a decafluorobutane gas-saturated aqueous suspension of distearoylphosphatidylcholine (2 mg/mL) and polyoxyethylene-40-stearate (1 mg/mL). The contrast agent was intravenously infused via the jugular vein catheter at a rate of ˜5×10^5 microbubbles·min-1 (20 μl·min^−1) and MCE was performed by administering a multi-pulse contrast-specific pulse sequence to detect non-linear microbubble contrast signal at low mechanical index (MI=0.18-0.25). Data were acquired during and after a 1.9 MI pulse sequence to destruct microbubbles within the acoustic field, followed by imaging of replenished contrast signal.
Measurements of cardiac function, myocardial perfusion, and arterial blood pressure were performed at baseline, after administration of hexamethonium (5 mg·kg^−1, i.v.), and following successive doses of norepinephrine (0.5, 1.0, 2.5, and 5.0 μg·kg^−1·min^−1; 3 min duration each dose, followed by 3-5 min washout). […] All data analyses and calculations of cardiac workload (double product of mean arterial pressure and heart rate), cardiac function, myocardial blood flow, and mean arterial pressure were performed offline. For pressure measurements, we used Lab Chart 8 software (ADInstruments, Colorado Springs, Colo., USA). Left ventricular volume at end diastole (LVEDV) and end systole (LVESV), as well left ventricular internal diameter at end diastole (LVID,d) and end systole (LVID,s) were measured at steady state after drug infusions. […]

[1] = NE 0.5 μg/kg·min−1 i.v., Kvβ1.1−/− mice
[2] = NE 0.5 μg/kg·min−1 i.v., Kvβ2−/− mice
[3] = NE 0.5 μg/kg·min−1 i.v., SM22α-rtTA mice
[4] = NE 0.5 μg/kg·min−1 i.v., SM22α-rtTA:TRE-Kvβ1 mice
[5] = NE 0.5 μg/kg·min−1 i.v., Wild type (129SvEv) mice
[6] = NE 0.5 μg/kg·min−1 i.v., Wild type (C57B16N) mice
[7] = NE 1 μg/kg·min−1 i.v., Kvβ1.1−/− mice
[8] = NE 1 μg/kg·min−1 i.v., Kvβ2−/− mice
[9] = NE 1 μg/kg·min−1 i.v., SM22α-rtTA mice
[10] = NE 1 μg/kg·min−1 i.v., SM22α-rtTA:TRE-Kvβ1 mice
[11] = NE 1 μg/kg·min−1 i.v., Wild type (129SvEv) mice
[12] = NE 1 μg/kg·min−1 i.v., Wild type (C57B16N) mice
[13] = NE 2.5 μg/kg·min−1 i.v., Kvβ1.1−/− mice
[14] = NE 2.5 μg/kg·min−1 i.v., Kvβ2−/− mice
[15] = NE 2.5 μg/kg·min−1 i.v., SM22α-rtTA mice
[16] = NE 2.5 μg/kg·min−1 i.v., SM22α-rtTA:TRE-Kvβ1 mice
[17] = NE 2.5 μg/kg·min−1 i.v., Wild type (129SvEv) mice
[18] = NE 2.5 μg/kg·min−1 i.v., Wild type (C57B16N) mice
[19] = NE 5.0 μg/kg·min−1 i.v., Kvβ1.1−/− mice
[20] = NE 5.0 μg/kg·min−1 i.v., Kvβ2−/− mice
[21] = NE 5.0 μg/kg·min−1 i.v., SM22α-rtTA mice
[22] = NE 5.0 μg/kg·min−1 i.v., SM22α-rtTA:TRE-Kvβ1 mice
[23] = NE 5.0 μg/kg·min−1 i.v., Wild type (129SvEv) mice
[24] = NE 5.0 μg/kg·min−1 i.v., Wild type (C57B16N) mice

NC[C@H](O)c1ccc(O)c(O)c1 [norepinephrine]
EDV (left ventricular end diastolic volume) [1]: 53.5 ± 4.9 µL
EF (ejection fraction) [1]: 61.4 ± 4.2%
ESV (left ventricular end systolic volume) [1]: 21.3 ± 3.9 µL
FS (fractional shortening) [1]: 32.5 ± 2.8%
SV (stroke volume) [1]: 32.2 ± 1.8 µL
EDV (left ventricular end diastolic volume) [2]: 48.3 ± 2.7 µL
EF (ejection fraction) [2]: 71.9 ± 3.3%
ESV (left ventricular end systolic volume) [2]: 13.6 ± 1.6 µL
FS (fractional shortening) [2]: 40.7 ± 2.8%
SV (stroke volume) [2]: 34.7 ± 2.4 µL
EDV (left ventricular end diastolic volume) [3]: 43.6 ± 2.9 µL
EF (ejection fraction) [3]: 82.3 ± 3.3%
ESV (left ventricular end systolic volume) [3]: 8.1 ± 2.0 µL
FS (fractional shortening) [3]: 50.9 ± 3.6%
SV (stroke volume) [3]: 35.4 ± 1.6 µL
EDV (left ventricular end diastolic volume) [4]: 45.9 ± 3.8 µL
EF (ejection fraction) [4]: 62.7 ± 6.0%
ESV (left ventricular end systolic volume) [4]: 17.7 ± 3.6 µL
FS (fractional shortening) [4]: 33.9 ± 4.1%
SV (stroke volume) [4]: 28.2 ± 2.7 µL
EDV (left ventricular end diastolic volume) [5]: 50.5 ± 7.8 µL
EF (ejection fraction) [5]: 63.5 ± 2.5%
ESV (left ventricular end systolic volume) [5]: 19.4 ± 3.7 µL
FS (fractional shortening) [5]: 34.2 ± 1.9%
SV (stroke volume) [5]: 31.2 ± 4.2 µL
EDV (left ventricular end diastolic volume) [6]: 57.8 ± 2.3 µL
EF (ejection fraction) [6]: 71.64 ± 2.2%
ESV (left ventricular end systolic volume) [6]: 16.37 ± 1.4 µL
FS (fractional shortening) [6]: 40.48 ± 2.0%
SV (stroke volume) [6]: 41.46 ± 2.3 µL
EDV (left ventricular end diastolic volume) [7]: 47.6 ± 8.1 µL
EF (ejection fraction) [7]: 70.9 ± 3.1%
ESV (left ventricular end systolic volume) [7]: 14.1 ± 3.4 µL
FS (fractional shortening) [7]: 40.1 ± 2.4%
SV (stroke volume) [7]: 33.5 ± 5.2 µL
EDV (left ventricular end diastolic volume) [8]: 48.7 ± 4.6 µL
EF (ejection fraction) [8]: 73.1 ± 1.8%
ESV (left ventricular end systolic volume) [8]: 13.3 ± 1.8 µL
FS (fractional shortening) [8]: 41.4 ± 1.6%
SV (stroke volume) [8]: 42.7 ± 8.2 µL
EDV (left ventricular end diastolic volume) [9]: 49.4 ± 2.9 µL
EF (ejection fraction) [9]: 80.6 ± 4.2%
ESV (left ventricular end systolic volume) [9]: 10.0 ± 2.6 µL
FS (fractional shortening) [9]: 49.6 ± 4.3%
SV (stroke volume) [9]: 39.4 ± 1.8 µL
EDV (left ventricular end diastolic volume) [10]: 46.9 ± 4.9 µL
EF (ejection fraction) [10]: 74.2 ± 3.9%
ESV (left ventricular end systolic volume) [10]: 12.7 ± 3.2 µL
FS (fractional shortening) [10]: 42.7 ± 3.3%
SV (stroke volume) [10]: 34.2 ± 2.0 µL
EDV (left ventricular end diastolic volume) [11]: 46.7 ± 7.4 µL
EF (ejection fraction) [11]: 70.7 ± 5.3%
ESV (left ventricular end systolic volume) [11]: 14.7 ± 4.3 µL
FS (fractional shortening) [11]: 40.1 ± 4.6%
SV (stroke volume) [11]: 32.0 ± 3.7 µL
EDV (left ventricular end diastolic volume) [12]: 61.6 ± 3.2 µL
EF (ejection fraction) [12]: 72.40 ± 1.2%
ESV (left ventricular end systolic volume) [12]: 17.12 ± 1.3 µL
FS (fractional shortening) [12]: 40.97 ± 1.0%
SV (stroke volume) [12]: 44.52 ± 2.3 µL
EDV (left ventricular end diastolic volume) [13]: 41.5 ± 8.8 µL
EF (ejection fraction) [13]: 78.2 ± 2.0%
ESV (left ventricular end systolic volume) [13]: 9.4 ± 2.7 µL
FS (fractional shortening) [13]: 46.0 ± 1.8%
SV (stroke volume) [13]: 32.1 ± 6.1 µL
EDV (left ventricular end diastolic volume) [14]: 52.8 ± 3.5 µL
EF (ejection fraction) [14]: 70.1 ± 2.6%
ESV (left ventricular end systolic volume) [14]: 15.7 ± 1.6 µL
FS (fractional shortening) [14]: 39.0 ± 2.2%
SV (stroke volume) [14]: 37.1 ± 2.8 µL
EDV (left ventricular end diastolic volume) [15]: 51.5 ± 2.8 µL
EF (ejection fraction) [15]: 77.4 ± 5.1%
ESV (left ventricular end systolic volume) [15]: 12.2 ± 3.1 µL
FS (fractional shortening) [15]: 46.8 ± 4.8%
SV (stroke volume) [15]: 39.3 ± 2.1 µL
EDV (left ventricular end diastolic volume) [16]: 47.5 ± 5.5 µL
EF (ejection fraction) [16]: 74.2 ± 5.7%
ESV (left ventricular end systolic volume) [16]: 13.2 ± 4.3 µL
FS (fractional shortening) [16]: 43.1 ± 4.8%
SV (stroke volume) [16]: 34.3 ± 1.4 µL
EDV (left ventricular end diastolic volume) [17]: 48.8 ± 6.0 µL
EF (ejection fraction) [17]: 67.9 ± 2.7%
ESV (left ventricular end systolic volume) [17]: 16.0 ± 2.7 µL
FS (fractional shortening) [17]: 37.4 ± 2.1%
SV (stroke volume) [17]: 32.8 ± 3.6 µL
EDV (left ventricular end diastolic volume) [18]: 62.8 ± 3.7 µL
EF (ejection fraction) [18]: 72.88 ± 1.8%
ESV (left ventricular end systolic volume) [18]: 17.22 ± 1.7 µL
FS (fractional shortening) [18]: 41.47 ± 1.5%
SV (stroke volume) [18]: 45.63 ± 2.6 µL
EDV (left ventricular end diastolic volume) [19]: 45.7 ± 11.9 µL
EF (ejection fraction) [19]: 79.1 ± 2.7%
ESV (left ventricular end systolic volume) [19]: 10.4 ± 3.4 µL
FS (fractional shortening) [19]: 47.1 ± 2.4%
SV (stroke volume) [19]: 35.3 ± 8.5 µL
EDV (left ventricular end diastolic volume) [20]: 54.6 ± 4.5 µL
EF (ejection fraction) [20]: 67.5 ± 3.8%
ESV (left ventricular end systolic volume) [20]: 18.5 ± 3.1 µL
FS (fractional shortening) [20]: 37.3 ± 3.0%
SV (stroke volume) [20]: 36.1 ± 2.3 µL
EDV (left ventricular end diastolic volume) [21]: 56.9 ± 3.9 µL
EF (ejection fraction) [21]: 77.7 ± 5.8%
ESV (left ventricular end systolic volume) [21]: 13.4 ± 3.9 µL
FS (fractional shortening) [21]: 48.1 ± 6.0%
SV (stroke volume) [21]: 43.5 ± 3.1 µL
EDV (left ventricular end diastolic volume) [22]: 49.3 ± 5.7 µL
EF (ejection fraction) [22]: 69.9 ± 5.0%
ESV (left ventricular end systolic volume) [22]: 15.6 ± 3.9 µL
FS (fractional shortening) [22]: 39.3 ± 4.2%
SV (stroke volume) [22]: 33.7 ± 2.6 µL
EDV (left ventricular end diastolic volume) [23]: 56.4 ± 5.0 µL
EF (ejection fraction) [23]: 69.1 ± 2.4%
ESV (left ventricular end systolic volume) [23]: 17.3 ± 1.6 µL
FS (fractional shortening) [23]: 38.3 ± 1.9%
SV (stroke volume) [23]: 39.1 ± 4.1 µL
EDV (left ventricular end diastolic volume) [24]: 66.1 ± 4.4 µL
EF (ejection fraction) [24]: 73.65 ± 2.4%
ESV (left ventricular end systolic volume) [24]: 17.85 ± 2.3 µL
FS (fractional shortening) [24]: 42.39 ± 2.1%
SV (stroke volume) [24]: 48.26 ± 2.7 µL
ejection fraction (Kvβ2−/− mice): 71±1.7%
ejection fraction (WT animals): 84±2.2%
